From PubChem BioAssay AID1963984 (Molecular Pharmacology Branch, DTP, NCI, 2024)

Tested on: 233499-124-R-J3-PDC spheroids with HUVEC/MSC, viability
Assay: Anticancer human tumor 233499-124-R-J3-PDC patient-derived colon adenocarcinoma cell line growth inhibition [PI3K]
Settings: for IC50: curve of first compound; for viability, T/C: stronger effect = lower value
In short: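 Targeted small molecules plus PI3K inhibitors, half-log dose series from Cmax (default top 10 microM), were applied to heterotypic spheroids of cancer cells with HUVEC and MSCs. Viability indicated growth inhibition.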
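Note: spheroids exposed to agents for seven days before readout.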
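Throughout, for viability, T/C: percent viability relative to DMSO vehicle control taken as 100%.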

`Cn1cnc2c(F)c(Nc3ccc(Br)cc3Cl)c(C(=O)NOCCO)cc21` + CC(Nc1ncnc2nc[nH]c12)c1cc2cccc(Cl)c2c(=O)n1-c1ccccc1 was tested, and the IC50 (second compound 0.0316 µM) was 600 nM, the IC50 (second compound 0.1 µM) was 603 nM and the IC50 (second compound 0.316 µM) was 511 nM. For the same compound, the IC50 (second compound 1 µM) was 281 nM, the IC50 (second compound 3.16 µM) was 275 nM and the IC50 (second compound 10 µM) was 455 nM. The viability, T/C (second compound 0.0316 µM, first compound 0.00949 µM) was 68.9%, the viability, T/C (second compound 0.0316 µM, first compound 0.03 µM) was 69.2% and the viability, T/C (second compound 0.0316 µM, first compound 0.0949 µM) was 66%. The viability, T/C (second compound 0.0316 µM, first compound 0.3 µM) was 70.9%, the viability, T/C (second compound 0.0316 µM, first compound 0.949 µM) was 37.6% and the viability, T/C (second compound 0.0316 µM, first compound 3 µM) was 28.6%. The viability, T/C (second compound 0.1 µM, first compound 0.00949 µM) was 83.8%, the viability, T/C (second compound 0.1 µM, first compound 0.03 µM) was 73.6% and the viability, T/C (second compound 0.1 µM, first compound 0.0949 µM) was 64.9%. It also gave a viability, T/C (second compound 0.1 µM, first compound 0.3 µM) of 67.6%, a viability, T/C (second compound 0.1 µM, first compound 0.949 µM) of 40.3% and a viability, T/C (second compound 0.1 µM, first compound 3 µM) of 19.5%. For the same compound, the viability, T/C (second compound 0.316 µM, first compound 0.00949 µM) was 90%, the viability, T/C (second compound 0.316 µM, first compound 0.03 µM) was 76.5% and the viability, T/C (second compound 0.316 µM, first compound 0.0949 µM) was 61.1%. For the same compound, the viability, T/C (second compound 0.316 µM, first compound 0.3 µM) was 64%, the viability, T/C (second compound 0.316 µM, first compound 0.949 µM) was 41% and the viability, T/C (second compound 0.316 µM, first compound 3 µM) was 31%. The viability, T/C (second compound 1 µM, first compound 0.00949 µM) was 96.6%, the viability, T/C (second compound 1 µM, first compound 0.03 µM) was 73.4% and the viability, T/C (second compound 1 µM, first compound 0.0949 µM) was 53%. For the same compound, the viability, T/C (second compound 1 µM, first compound 0.3 µM) was 51.5%, the viability, T/C (second compound 1 µM, first compound 0.949 µM) was 51.7% and the viability, T/C (second compound 1 µM, first compound 3 µM) was 22.4%. The viability, T/C (second compound 3.16 µM, first compound 0.00949 µM) was 76.8%, the viability, T/C (second compound 3.16 µM, first compound 0.03 µM) was 76.2% and the viability, T/C (second compound 3.16 µM, first compound 0.0949 µM) was 64.7%. The viability, T/C (second compound 3.16 µM, first compound 0.3 µM) was 48.9%, the viability, T/C (second compound 3.16 µM, first compound 0.949 µM) was 40% and the viability, T/C (second compound 3.16 µM, first compound 3 µM) was 37.1%. It also gave a viability, T/C (second compound 10 µM, first compound 0.00949 µM) of 74.6%, a viability, T/C (second compound 10 µM, first compound 0.03 µM) of 52.1% and a viability, T/C (second compound 10 µM, first compound 0.0949 µM) of 72.8%. The viability, T/C (second compound 10 µM, first compound 0.3 µM) was 50%, the viability, T/C (second compound 10 µM, first compound 0.949 µM) was 43.4% and the viability, T/C (second compound 10 µM, first compound 3 µM) was 25.3%.
